In paper PMC12379584, “Characterization of the ligand binding pocket of the virulence regulator Rns, a member of the AraC/XylS family of transcription factors” (mSphere, 2025):
pIC50: −log10 of the molar value.

Columns and labels:
MBP-Rns [1] = target: T1, MBP-Rns (Escherichia coli, UniProt P16114); assay: EMSA, inhibition of DNA binding; type: biochemical
T1 construct: full-length codon-optimized Rns with N-terminal MBP solubility tag kept (pMBPRnsOPT2, pMalC2), expressed in E. coli BL21, MBPTrap and heparin columns

MBP-Rns [2] = target: MBP-Rns (Escherichia coli, UniProt P16114, H20A); assay: biochemical
MBP-Rns [3] = target: MBP-Rns (Escherichia coli, UniProt P16114, I14F/I17F); assay: biochemical
MBP-Rns [4] = target: MBP-Rns (Escherichia coli, UniProt P16114, R75A); assay: biochemical

CCCCCCCCCC(=O)O [decanoic acid]
pIC50 (MBP-Rns [1]): 2.94
pIC50 (MBP-Rns [2]): < 2.00
pIC50 (MBP-Rns [3]): < 2.00
pIC50 (MBP-Rns [4]): < 2.00
